Tests used:
Assay type in all cases: physicochemical
[1] = Solution stability of 5-azacytidine in water; details: for Area (%) at RRT 1.00 (5-azacytidine) / Area (%) of peak at RRT 0.63 / Area (%) of peak at RRT 2.01 / Total impurities by % area / Area (%) of peak at RRT 1.70: water, about 1.65 mg/ml
Procedure: (§1) The HPLC measurements were performed using a system equipped with an Inertsil C18 column (ODS-2, 5 microns, 250×4.6 mm (ODS-167)). Other parameters of the system were as follows: • Detection: UV detector operated on 242 nm • Column temperature: 20° C. • Run time: 45 minutes • Injection volume: 10 μl • Flow rate: 1.0 ml/minute • Sample set temperature: 5° C. • Sample concentration: about 1.65 mg/ml • Diluent: Mixture of 30% 10 mM ammonium acetate and 70% THF
(§2) Analyses were performed using the following mobile phase • Mobile Phase (Eluent) A: 10 mM ammonium acetate • Mobile Phase (Eluent) B: 60% 10 mM ammonium acetate, 40% MeOH
Samples were withdrawn from the flask every consecutive hour and injected to the HPLC system.

[2] = Induced degradation of 5-azacytidine in solid state (observation, FT-IR, HPLC); details: for Area (%) at RRT 1.00 (5-azacytidine) / Area (%) of peak at RRT 0.63 / Area (%) of peak at RRT 2.01 / Area (%) of peak at RRT 2.05 / Total impurities (%): solid
Procedure: as §1, §2
The sample was placed in a UV chamber and exposed to UV light for 48 hours. • Accelerated conditions [40±2° C./75±5% Relative Humidity (RH)].
At the end of the stipulated time period, the physical descriptions of each sample were noted down. Identification tests were performed by FT-IR, and purity checks were performed by HPLC analysis. The protected sample, as defined herein, is the reference storage material used for carrying out the experiments detailed in Tables 7 and 8.

[3] = Induced degradation of 5-azacytidine in liquid state (HPLC)
Procedure: as §1, §2
Acidic hydrolysis—blank preparation: Hydrochloric acid (5 ml, 0.01M HCl) was diluted to 10 ml with the diluent. […] An aliquot (5 ml) was diluted to 10 ml with the diluent. The blank preparation and sample preparation were injected to the HPLC system by using the chromatographic conditions as mentioned in example 8. • Basic hydrolysis—blank preparation: Sodium hydroxide (5 ml, 0.01M NaOH) was diluted to 10 ml with the diluent. […] An aliquot (5 ml) was diluted to 10 ml with diluent. […] An aliquot (5 ml) was diluted to 10 ml with the diluent. The blank and sample preparations were injected to the HPLC system using the chromatographic conditions as detailed in example 8. • Photolysis—blank preparation: The diluent (50 ml) was mixed under UV light for 48 hours. […] The blank preparation and sample preparation were injected to the HPLC system using the chromatographic conditions as mentioned in example 8.

[4] = accelerated conditions (40 ± 2° C., 75 ± 5% RH), 48 hours
[5] = exposure to ambient conditions, visible light 48 hours
[6] = exposure to elevated temperature (105° C.), 48 hours
[7] = Acidic: 0.01M HCl, room temperature, about 1 hour
[8] = Basic: 0.01M NaOH, room temperature, about 1 hour
[9] = Oxidation: 10% hydrogen peroxide solution, room temperature, about 1 hour
[10] = Photolysis: in the diluent, UV light 48 hours

Area (%) at RRT 1.00 (5-azacytidine) ([1]; 0 hours): 97.47% | Area (%) of peak at RRT 0.63 ([1]; 0 hours): 0.64% | Area (%) of peak at RRT 2.01 ([1]; 0 hours): 1.59% | Total impurities by % area ([1]; 0 hours): 2.53% | Area (%) at RRT 1.00 (5-azacytidine) ([1]; 1 hour): 95.97% | Area (%) of peak at RRT 0.63 ([1]; 1 hour): 2.16% | Area (%) of peak at RRT 2.01 ([1]; 1 hour): 1.57% | Total impurities by % area ([1]; 1 hour): 4.03% | Area (%) at RRT 1.00 (5-azacytidine) ([1]; 4 hours): 91.38% | Area (%) of peak at RRT 0.63 ([1]; 4 hours): 6.86% | Area (%) of peak at RRT 2.01 ([1]; 4 hours): 1.46% | Total impurities by % area ([1]; 4 hours): 8.62% | Area (%) at RRT 1.00 (5-azacytidine) ([1]; 8 hours): 83.61% | Area (%) of peak at RRT 0.63 ([1]; 8 hours): 14.68% | Area (%) of peak at RRT 1.70 ([1]; 8 hours): 0.23% | Area (%) of peak at RRT 2.01 ([1]; 8 hours): 1.36% | Total impurities by % area ([1]; 8 hours): 16.39% | Area (%) at RRT 1.00 (5-azacytidine) ([1]; 12 hours): 77.01% | Area (%) of peak at RRT 0.63 ([1]; 12 hours): 21.28% | Area (%) of peak at RRT 1.70 ([1]; 12 hours): 0.35% | Area (%) of peak at RRT 2.01 ([1]; 12 hours): 1.25% | Total impurities by % area ([1]; 12 hours): 22.99% | FT-IR spectra changes ([2]; solid state induced degradation): did not show any significant changes | Stability in solid state (HPLC analysis) ([2]; solid state, Tables 7 and 8): stable to heat and IJV light | Change in color of the sample ([2]; solid state, exposed to an elevated temperature): slight change in color | Area (%) at RRT 1.00 (5-azacytidine) [2, 4]: 97.04% | Area (%) of peak at RRT 0.63 [2, 4]: 1.90% | Area (%) of peak at RRT 2.01 [2, 4]: 0.80% | Area (%) of peak at RRT 2.05 [2, 4]: 0.14% | Total impurities (%) [2, 4]: 2.96% | Area (%) at RRT 1.00 (5-azacytidine) ([2]; exposure to UV light, 48 hours): 96.64% | Area (%) of peak at RRT 0.63 ([2]; exposure to UV light, 48 hours): 1.66% | Area (%) of peak at RRT 2.01 ([2]; exposure to UV light, 48 hours): 1.35% | Area (%) of peak at RRT 2.05 ([2]; exposure to UV light, 48 hours): 0.24% | Total impurities (%) ([2]; exposure to UV light, 48 hours): 3.36% | Area (%) at RRT 1.00 (5-azacytidine) [2, 5]: 96.75% | Area (%) of peak at RRT 0.63 [2, 5]: 1.52% | Area (%) of peak at RRT 2.01 [2, 5]: 1.36% | Area (%) of peak at RRT 2.05 [2, 5]: 0.27% | Total impurities (%) [2, 5]: 3.25% | Area (%) at RRT 1.00 (5-azacytidine) [2, 6]: 96.61% | Area (%) of peak at RRT 0.63 [2, 6]: 2.00% | Area (%) of peak at RRT 2.01 [2, 6]: 1.01% | Area (%) of peak at RRT 2.05 [2, 6]: 0.17% | Total impurities (%) [2, 6]: 3.39% | Area (%) at RRT 1.00 (5-azacytidine) ([2]; protected sample (storage)): 96.72% | Area (%) of peak at RRT 0.63 ([2]; protected sample (storage)): 1.55% | Area (%) of peak at RRT 2.01 ([2]; protected sample (storage)): 1.37% | Area (%) of peak at RRT 2.05 ([2]; protected sample (storage)): 0.24% | Total impurities (%) ([2]; protected sample (storage)): 3.28% | Area (%) at RRT 1.00 (5-azacytidine) [3, 7]: 71.96% | Area (%) of peak at RRT 0.33 [3, 7]: 0.17% | Area (%) of peak at RRT 0.63 [3, 7]: 21.1% | Area (%) of peak at RRT 1.18 [3, 7]: 5.35% | Area (%) of peak at RRT 1.65 [3, 7]: 0.14% | Area (%) of peak at RRT 2.01 [3, 7]: 1.10% | Total impurities (%) [3, 7]: 28.04% | Area (%) at RRT 1.00 (5-azacytidine) [3, 8]: 3.38% | Area (%) of peak at RRT 0.33 [3, 8]: 89.92% | Area (%) of peak at RRT 0.42 [3, 8]: 3.97% | Total impurities (%) [3, 8]: 96.62% | Area (%) at RRT 1.00 (5-azacytidine) [3, 9]: 97.18% | Area (%) of peak at RRT 0.33 [3, 9]: 0.84% | Area (%) of peak at RRT 0.42 [3, 9]: 0.06% | Area (%) of peak at RRT 0.63 [3, 9]: 0.23% | Area (%) of peak at RRT 2.01 [3, 9]: 1.62% | Total impurities (%) [3, 9]: 2.82% | Area (%) at RRT 1.00 (5-azacytidine) [3, 10]: 61.64% | Area (%) of peak at RRT 0.33 [3, 10]: 0.85% | Area (%) of peak at RRT 0.39 [3, 10]: 0.11%
Compound: Nc1ncn([C@@H]2O[C@H](CO)[C@@H](O)[C@H]2O)c(=O)n1 [5-azacytidine, 4-amino-1-β-D-ribofuranosyl-1,3,5-s-triazine-2(1H)-one]
Solution stability in water ([1]; in water): unstable in water over prolonged time periods

From patent publication US20110288042A1, “STABLE HIGHLY PURE AZACITIDINE AND PREPARATION METHODS THEREFOR” (CHEMAGIS LTD., priority 2007, published 2011)
